Measured values reported in US20230000811A1, “COMPOSITIONS FOR DISRUPTING BIOFILM FORMATION AND FOR TREATING BIOFILM-RELATED DISORDERS” (AHV International B.V., priority 2020, published 2023).

Tests used:
Assay type in all cases: cell-based
[1] = system: heterotrophic microbial biofilm; experiment: Biofilm eradication in PBR (photobioreactor), released CFU's
Experimental: In order to determine the anti-biofilm effect of PTSO, PTS and DPD (dipropyl disulfide), a biofilm was grown under controlled conditions in a glass tube reactor, the PBR. A photobioreactor was used as model system because biofilm formation was clearly visible in the glass tubes. After a mature biofilm was formed, increasing levels of pure PTSO, PTS or DPD were added and the biofilm was removed by titration of pure PTSO, PTS or DPD and the dosages were determined that the biofilm was eradicated. Hereafter, the microbial composition was determined of the biofilm by deep sequencing.
Heterotrophic microbial biofilm: a biofilm was cultivated in a 26.5-liter glass photobioreactor (PBR) with a tube length of 37-meter incl. bends (the GemTube RD-25 Glass of LGEM). The PBR was filled with 22 liters of not sterilized medium (fable 1).
The medium further contained 1 g/l glucose. Inoculation took place by the adding 500 ml ditch water from the Zuidpolder near Delfgauw. Air was pumped in with a rate of 1.0 liter/min: at this setting the medium circulation through the PBR in the medium was as low as possible but there was a stable hold-up to realize medium circulation in the PBR. The PBR was covered with a dark plastic screen to prevent exposure to the light. Incubation took place at 12-18° C. and pH was controlled 5 times per week to 5.2-5.7, once per 1.5 day. After a total dosage of 5 g/l glucose, (after 1 week) a slimy layer (biofilm) was formed that covers the whole inner surface of the glass tube. The medium was replaced by fresh medium without glucose when the biofilm was formed.
Pure PTSO and PTS were obtained as is indicated in example 1 and stable solutions were prepared in water by sonication of 1000× diluted mixtures. DPD (dipropyl disulfide >98% pure) was supplied by Sigma. After each addition step the biofilm culture was incubated for 24 hours to observe the stability of the biofilm.
The numbers of aerobic, anaerobic/micro-aerophilic and fungal CFU's in the biofilm and supernatant were determined according to standard operating procedures as follows: for aerobic colony forming units per ml (CFU/ml) see https://www.iso.org/standard/53728.html; for the determination of anaerobic CFU's/ml see https://www.thermofisher.com/order/catalog/product/AN0025A#HAN0025A (the plates are incubated in an oxygen-free container) and with respect to the numbers of colony forming unites for fungi see http://edgeanalytical.com/wp-content/uploads/Food_AOAC-997.02.pdf (see Table 2).
Another sample of the biofilm was drawn and a part was stored at minus 80 degrees as inoculum material for further studies. The other part of the biofilm was dissolved by gentle sonification and used to determine the aerobic, anaerobic and fungal numbers of colony forming units as described above. Hereafter it was calculated whether the numbers of colony forming microorganisms in the medium corresponded with the number of microorganisms in the biofilm prior to the treatment. In this way it was calculated whether the microorganisms were killed by the treatments, or that the bacteria remained alive and that only the biofilm was solubilized.
In order to investigate whether PTSO has a destabilizing effect of the biofilm or simply kills the microorganisms, samples were drawn from the biofilm before the treatments and samples of the liquid medium were drawn before and after treatment and were inoculated as described above to determine the number of colony forming units. Hereafter it was calculated whether the numbers of colony forming microorganisms in the medium corresponded with the number of microorganisms in the biofilm prior to the treatment. In this way it was calculated whether the microorganisms are killed by the treatments, or that the bacteria remained alive and that only the biofilm was solubilized (fable 6).

[2] = system: Staphylococcus aureus strains; experiment: MBIC 90 (minimum biofilm inhibitory concentration)
From the text: (§1) In this example the following bacterial strains were used: Staphyllococcus aureus ATCC 25923 obtained from the ATCC collection; Staphyllococcus aureus 074 was kindly provided by prof. Fink, Faculty of Veterinary Medicine, Utrecht University, the Netherlands, described as a clinical isolate from cows with mastitis. Information for the strain is further given in: Melchior, M. B., Fink-Gremmels, J., & Gaastra, W. (2006). Comparative Assessment of the Antimicrobial Susceptibility of Staphylococcus aureus Isolates from Bovine Mastitis in Biofilm Versus Planktonic Culture. Journal of Veterinary Medicine Series B, 53(7), 326-332; Staphyllococcus aureus ATCC 15564 obtained from the ATCC collection and Streptococcus uberis clinical isolate from a cow with mastitis, part from the collection of Department of Veterinary Microbiology, Infectious and Parasitic Diseases, Trakia University, Bulgary.
(§2) Minimum Biofilm Inhibitory Concentration (MBIC) and Microtiter Biofilm Eradication concentration (MBEC) are defined and measured as indicated in table 7.
(§3) Applying the methods as summarised in table 7, the above-mentioned bacteria were tested with PTSO/PTS enriched plant extract, pure PTSO, and pure PTS as described in example 1 and DPD as described in example 2.

[3] = system: Streptococcus uberis; experiment: MBIC 90 (minimum biofilm inhibitory concentration); settings: Str. uberis clinical isolate
From the text: as §1, §2, §3

[4] = system: Staphylococcus aureus strains; experiment: MBEC (biofilm eradication)
From the text: as §1, §2, §3

[5] = system: Streptococcus uberis; experiment: MBEC (biofilm eradication); settings: Str. uberis clinical isolate
From the text: as §1, §2, §3

[6] = PTSO cumulative dosage 0.05 ul/l culture (dose 0.05), day 2
[7] = PTSO cumulative dosage 0.15 ul/l culture (dose 0.1), day 6
[8] = PTSO cumulative dosage 0.65 ul/l culture (dose 0.5), day 8
[9] = PTSO cumulative dosage 1.65 ul/l culture (dose 1.0), day 13
[10] = PTSO cumulative dosage 3.65 ul/l culture (dose 2.0), day 15
[11] = after 208 mg pure DPD/liter culture
[12] = total dose DPD (cumulative) 1 ul/l (dose 0.50)
[13] = total dose DPD (cumulative) 2 ul/l (dose 1.00)
[14] = total dose DPD (cumulative) 7 ul/l (dose 5.00)
[15] = total dose DPD (cumulative) 17 ul/l (dose 10.00)
[16] = total dose DPD (cumulative) 67 ul/l (dose 50.00)
[17] = total dose DPD (cumulative) 117 ul/l (dose 50.00)
[18] = total dose DPD (cumulative) 167 ul/l (dose 50.00)
[19] = total dose DPD (cumulative) 217 ul/l (dose 50.00)
[20] = total dose DPD (cumulative) 267 ul/l (dose 50.00)
[21] = total dose DPD (cumulative) 317 ul/l (dose 50.00)
[22] = total dose DPD (cumulative) 367 ul/l (dose 50.00)
[23] = total dose DPD (cumulative) 417 ul/l (dose 50.00)
[24] = total dose DPD (cumulative) 467 ul/l (dose 50.00)
[25] = total dose DPD (cumulative) 517 ul/l (dose 50.00)

CCCSS(=O)(=O)CCC (single isomer, unassigned) [PTSO, propyl-propane thiosulfonate]
Aerobic CFU's after 24 hours [1, 6]: 2,033 ×1000 | Anaerobic CFU's after 24 hour [1, 6]: 383 ×1000 | Fungal CFU's after 24 hours [1, 6]: 150 ×1000 | Aerobic CFU's after 24 hours [1, 7]: 3,367 ×1000 | Anaerobic CFU's after 24 hour [1, 7]: 750 ×1000 | Fungal CFU's after 24 hours [1, 7]: 150 ×1000 | Aerobic CFU's after 24 hours [1, 8]: 6,267 ×1000 | Anaerobic CFU's after 24 hour [1, 8]: 1,127 ×1000 | Fungal CFU's after 24 hours [1, 8]: 517 ×1000 | Aerobic CFU's after 24 hours [1, 9]: 17,333 ×1000 | Anaerobic CFU's after 24 hour [1, 9]: 4,400 ×1000 | Fungal CFU's after 24 hours [1, 9]: 20,333 ×1000 | Aerobic CFU's after 24 hours [1, 10]: 5,867 ×1000 | Anaerobic CFU's after 24 hour [1, 10]: 2,933 ×1000 | Fungal CFU's after 24 hours [1, 10]: 1,567 ×1000 | Total (released from biofilm) colony forming units/ml, In culture supernatant ([1]; after 0.9 mg pure PTSO/liter culture): 42,000 units/ml (×1000) | Total colony forming units/ml, In biofilm ([1]; after 0.9 mg pure PTSO/liter culture, 0* means biofilm had disappeared): 0* units/ml (×1000) | % volume biofilm in relation to culture volume ([1]; after 0.9 mg pure PTSO/liter culture, before start treatment 18): 0% | total dosage at which the biofilm became significantly thinner ([1]; mature biofilm in PBR, visual observation): 0.65 ul/l | total dosage at which disintegration / release of the biofilm becomes visible ([1]; mature biofilm in glass tube PBR, visual observation): 0.05 ul/l | MBIC 90 ([2]; St. aureus 074): 128 µg/mL | MBIC 90 ([2]; St. aureus ATCC 15564): 128 µg/mL | MBIC 90 ([2]; St. aureus ATCC 25923): 128 µg/mL | MBIC 90 [3]: 128 µg/mL | MBEC (biofilm eradication) ([4]; St. aureus 074): 256 µg/mL | MBEC (biofilm eradication) ([4]; St. aureus ATCC 15564): 256 µg/mL | MBEC (biofilm eradication) ([4]; St. aureus ATCC 25923): 512 µg/mL | MBEC (biofilm eradication) [5]: 512 µg/mL

CCCSSCCC [DPD, dipropyl disulfide]
state of the biofilm at the highest dosages (visual) ([1]; PBR, highest dosage(s) added): did not remove the remainder of the thin biofilm | Total (released from biofilm) colony forming units/ml, In culture supernatant [1, 11]: 3,403 units/ml (×1000) | Total colony forming units/ml, In biofilm [1, 11]: 0 units/ml (×1000) | % volume biofilm in relation to culture volume ([1]; after 208 mg pure DPD/liter culture, before start treatment 7): 0% | total addition at which the biofilm started to release from the glass ([1]; after dose 8, visual observation): 160 mg pure DPD/liter | Aerobic CFU's after 24 hours [1, 12]: 400000 ×1000 | Anaerobic CFU's after 24 hour [1, 12]: 45333 ×1000 | Fungal CFU's after 24 hours [1, 12]: 33333 ×1000 | Aerobic CFU's after 24 hours [1, 13]: 440000 ×1000 | Anaerobic CFU's after 24 hour [1, 13]: 43333 ×1000 | Fungal CFU's after 24 hours [1, 13]: 29000 ×1000 | Aerobic CFU's after 24 hours [1, 14]: 390000 ×1000 | Anaerobic CFU's after 24 hour [1, 14]: 43333 ×1000 | Fungal CFU's after 24 hours [1, 14]: 35000 ×1000 | Aerobic CFU's after 24 hours [1, 15]: 403333 ×1000 | Anaerobic CFU's after 24 hour [1, 15]: 39333 ×1000 | Fungal CFU's after 24 hours [1, 15]: 25333 ×1000 | Aerobic CFU's after 24 hours [1, 16]: 376667 ×1000 | Anaerobic CFU's after 24 hour [1, 16]: 40333 ×1000 | Fungal CFU's after 24 hours [1, 16]: 24000 ×1000 | Aerobic CFU's after 24 hours [1, 17]: 426667 ×1000 | Anaerobic CFU's after 24 hour [1, 17]: 37667 ×1000 | Fungal CFU's after 24 hours [1, 17]: 22333 ×1000 | Aerobic CFU's after 24 hours [1, 18]: 563333 ×1000 | Anaerobic CFU's after 24 hour [1, 18]: 43000 ×1000 | Fungal CFU's after 24 hours [1, 18]: 18333 ×1000 | Aerobic CFU's after 24 hours [1, 19]: 1766667 ×1000 | Anaerobic CFU's after 24 hour [1, 19]: 267000 ×1000 | Fungal CFU's after 24 hours [1, 19]: 18667 ×1000 | Aerobic CFU's after 24 hours [1, 20]: 1413333 ×1000 | Anaerobic CFU's after 24 hour [1, 20]: 340000 ×1000 | Fungal CFU's after 24 hours [1, 20]: 17000 ×1000 | Aerobic CFU's after 24 hours [1, 21]: 936667 ×1000 | Anaerobic CFU's after 24 hour [1, 21]: 100000 ×1000 | Fungal CFU's after 24 hours [1, 21]: 223333 ×1000 | Aerobic CFU's after 24 hours [1, 22]: 163333 ×1000 | Anaerobic CFU's after 24 hour [1, 22]: 35667 ×1000 | Fungal CFU's after 24 hours [1, 22]: 273333 ×1000 | Aerobic CFU's after 24 hours [1, 23]: 107333 ×1000 | Anaerobic CFU's after 24 hour [1, 23]: 19333 ×1000 | Fungal CFU's after 24 hours [1, 23]: 24333 ×1000 | Aerobic CFU's after 24 hours [1, 24]: 103333 ×1000 | Anaerobic CFU's after 24 hour [1, 24]: 9333 ×1000 | Fungal CFU's after 24 hours [1, 24]: 12667 ×1000 | Aerobic CFU's after 24 hours [1, 25]: 98333 ×1000 | Anaerobic CFU's after 24 hour [1, 25]: 5467 ×1000 | Fungal CFU's after 24 hours [1, 25]: 8000 ×1000 | total dosage up to which biofilm release continued ([1]; visual observation): 317 ul pure DPD/liter | MBIC 90 ([2]; St. aureus 074): >1024 µg/mL | MBIC 90 ([2]; St. aureus ATCC 15564): >1024 µg/mL | MBIC 90 ([2]; St. aureus ATCC 25923): >1024 µg/mL | MBIC 90 [3]: >1024 µg/mL | MBEC (biofilm eradication) ([4]; St. aureus 074): 1024 µg/mL | MBEC (biofilm eradication) ([4]; St. aureus ATCC 15564): >1024 µg/mL | MBEC (biofilm eradication) ([4]; St. aureus ATCC 25923): >1024 µg/mL | MBEC (biofilm eradication) [5]: >1024 µg/mL
